The text below walks through data of patent US20250271421A1, “KIT FOR QUANTITATIVE ANALYSIS OF C-REACTIVE PROTEIN, METHOD FOR QUANTITATIVE ANALYSIS OF C-REACTIVE PROTEIN, AND APPARATUS FOR PERFORMING THE SAME” (I-sens, Inc., priority 2024, published 2025).

The test system of data set [1] is blood cells in fresh venous whole blood samples (HCT 48%). The data set is described as follows: Evaluation of hemolytic effect of hemolytic reagents (first absorbance/turbidity). To be noted: for first absorbance: 750 nm, below 0.05 = hemolytic effect; for hemolytic effects on the blood cells in the blood sample: in most concentration ranges. The class given is cell-based. On the procedure:
To select hemolytic reagents with a hemolytic effect capable of lysing the blood cells in a blood sample, five candidate hemolytic reagents were selected. Each candidate hemolytic reagent was applied to fresh venous whole blood samples (HCT 48%). The background measurement values (i.e., the first turbidity or first absorbance) of samples treated with each candidate hemolytic reagent were measured. Specifically, the first absorbance of the samples was measured at a wavelength of 750 nm using the A1Care Analyzer by i-SENS, Inc.
The five candidate hemolytic reagents are listed below Table 1. […] A candidate hemolytic reagent was evaluated to have a hemolytic effect on the blood sample if the first turbidity of the sample was below 0.05.

Data set [2] relates to immune reaction between CRP and Anti-CRP antibodies. The data set is described as follows: Evaluation of antigen-antibody reactivity by hemolytic reagents (second absorbance, 7-Level CRP Serum Samples). On the procedure:
The concentrations of each candidate hemolytic reagent were determined as follows Table 2, taking into account the sample influence, including hematocrit.
Furthermore, each candidate hemolytic reagent was applied to 7-Level CRP Serum Samples, followed by an immune reaction between the hemolyzed samples and latex particles coated with Anti-CRP antibodies. Specifically, latex particles coated with Anti-CRP antibodies supplied by RANDOX were concentrated and stabilized with the addition of a stabilizer. The immune reaction was configured to occur between the hemolyzed samples and the latex particles coated with Anti-CRP antibodies.
After the immune reaction, the absorbance of each sample after the immune reaction (referred to as the second absorbance or second turbidity) was measured. Specifically, the second absorbance of the samples was measured at a wavelength of 750 nm using the A1Care Analyzer by i-SENS, Inc.
As for the control group, the experiment was designed to measure the second absorbance after the immune reaction between the 7-Level CRP Serum Samples without the addition of any hemolytic reagent and the latex particles coated with Anti-CRP antibodies. Additionally, the concentrations of the 7-Level CRP Serum Samples were varied from 0 to 195.8 mg/L, and the second absorbance was measured for each sample.

Data set [3] relates to immunoreagent (R2) containing Anti-CRP antibodies (latex particles coated with Anti-CRP antibodies). The data set is described as follows: Accelerated stability by stabilizers (1), 50° C., 7 days, 1-Level CRP Serum Sample. The class given is physicochemical. To be noted: stabilizer concentrations as in Table 4. On the procedure: To select a stabilizer that ensures the storage stability of the immunoreagent (R2) containing Anti-CRP antibodies, five candidate stabilizers were chosen. Each candidate stabilizer was added to latex particles coated with Anti-CRP antibodies and dried. The reagent solution and 1-Level CRP Serum Sample (CRP 60 mg/L) were added to the dried composition to facilitate the immune reaction between CRP and Anti-CRP antibodies. After the immune reaction, the absorbance was measured to obtain the baseline measurement value for storage on day 0. […]
Furthermore, the dried compositions, containing each candidate stabilizer added to latex particles coated with Anti-CRP antibodies, were stored in an oven at 50° C. […] The immune reaction between CRP and Anti-CRP antibodies was carried out, and the absorbance after the immune reaction was measured to obtain the measurement values for storage days 1, 2, 3, 4, 5, 6, and 7.
As for the control group, the experiment was configured to measure the absorbance after the immune reaction between the 1-Level CRP Serum Sample (CRP 60 mg/L) without the addition of any stabilizer and latex particles coated with Anti-CRP antibodies.
Furthermore, deviations (Bias) were calculated based on the baseline measurement value and the measurement values obtained over the storage period. […]

Data set [4] has the same test system. Put plainly: Accelerated stability by stabilizers (2), 50° C., 7 days, 3-Level CRP Serum Samples. The class given is physicochemical. To be noted: 100 mM. On the procedure: To select a stabilizer for ensuring the storage stability of the immunoreagent (R2) containing Anti-CRP antibodies, two candidate stabilizers (Trehalose and Sucrose) with confirmed through Experimental Example 4 storage stability effects were prepared. Each candidate stabilizer was added to latex particles coated with Anti-CRP antibodies and dried. The reagent solution and 3-Level CRP Serum Samples (CRP 10 mg/L, 50 mg/L, 150 mg/L) were added to the dried compositions, and the immune reaction between CRP and Anti-CRP antibodies was carried out. After the immune reaction, the absorbance was measured to obtain the baseline measurement value of storage on day 0.
Each candidate stabilizer was added to latex particles coated with Anti-CRP antibodies, and the dried compositions were stored in an oven at 50° C. The reagent solution was stored separately under refrigeration. At 1-day intervals over a period of 7 days, the reagent solution and 3-Level CRP Serum Samples (CRP 10 mg/L, 50 mg/L, 150 mg/L) were added to the dried compositions containing each candidate stabilizer. The immune reaction between CRP and Anti-CRP antibodies was conducted, and the absorbance after the immune reaction was measured to obtain the measurement values for storage days 1, 2, 3, 4, 5, 6, and 7.
Based on the baseline measurement value and the measurement values obtained during the storage period, deviations (Bias) were calculated.
Additionally, for each condition, the experiment was repeated 5 times, and precision (CV) was calculated.
The two candidate stabilizers are listed below Table 5, and stabilizers with deviations (Bias) measured within 20% throughout the storage period were evaluated as effective for ensuring the storage stability of the immunoreagent (R2). Stabilizers with precision (CV) measured within 10% were evaluated as having excellent precision.

Where [5] appears, read: CRP Serum (50 mg/L, Mid), up to storage day 7.
Setting [6] is: CRP Serum (150 mg/L, High), up to storage day 7.

In the case of Sodium deoxycholate [SDC], the first absorbance result is given as “greater than 0.05” in data set [1] (reagent concentration range 0.10-0.11 (w/v %)) and “less than 0.05” in data set [1] (reagent concentration range 0.12-0.20 (w/v %)). In addition, the “hemolytic effects on the blood cells in the blood sample” value in data set [1] is “exhibited hemolytic effects”. In data set [2] (0.13% SDC, 0.03% Saponin), the “effect of the hemolytic reaction on the antigen-antibody reaction between CRP and Anti-CRP antibodies” value is “did not affect the antigen-antibody reaction”.

Regarding `OC[C@H]1O[C@H](O[C@H]2O[C@H](CO)[C@@H](O)[C@H](O)[C@H]2O)[C@H](O)[C@@H](O)[C@@H]1O` [Trehalose], in data set [3], the “dissolution of the dried Anti-CRP antibodies (visually confirmed)” value is “dissolved properly”. Moreover, the “deviation (Bias) compared to baseline on day 0” value in data set [4] (CRP Serum (10 mg/L, Low), storage days 5 and 7) is reported as above 20%; in data set [4] (setting [5]) it was at most 20%; in data set [4] (setting [6]) it was at most 20%.

As to `CCCCCCCCCCCCCC(=O)NCCC[N+](C)(C)CCCS(=O)(=O)[O-]` [ASB-14], the first absorbance result in data set [1] (reagent concentration range 0.01-0.03 (w/v %)) is “greater than 0.05”; in data set [1] (reagent concentration range 0.04-0.20 (w/v %)), “less than 0.05”. In data set [1], the “hemolytic effects on the blood cells in the blood sample” value is “exhibited hemolytic effects”. Besides, the “decrease of absorbance corresponding to the CRP concentration compared to the control group” value in data set [2] (750 nm, 0.05% ASB-14, CRP serum 0 to 195.8 mg/L) is recorded as at least 50%.

Regarding `OC[C@H]1O[C@@](CO)(O[C@H]2O[C@H](CO)[C@@H](O)[C@H](O)[C@H]2O)[C@@H](O)[C@@H]1O` [Sucrose], in data set [3], the “dissolution of the dried Anti-CRP antibodies (visually confirmed)” value is reported as “dissolved properly”. Also, the “deviation (Bias) compared to baseline on day 0” value is recorded as at most 20% in data set [4] (CRP Serum (10 mg/L, Low), up to storage day 7); at most 20% in data set [4] (setting [5]); at most 20% in data set [4] (setting [6]).
